The values below come from patent US10463709B2, “Short synthetic peptide for treating diseases and/or conditions related to angiogenesis” (MacKay Memorial Hospital, priority 2015, dated 2019).

The subject of assay [1] is RPMI8226 cells. The assay can be described thus: MTT assay, VEGF-induced proliferation of RPMI8226 cells. It counts as cell-based. The protocol: The multiple myeloma line RPMI8226 was cultivated in complex medium (RPMI1640) supplemented with 10% (vol/vol) heat-inactivated fetal calf serum (Invitrogen), 50 μg/mL penicillin, 50 μg/mL streptomycin, and 2 mM L-glutamine at 37° C. in a 5% CO2 atmosphere. RPMI8226 cells were cultured in serum-free RPMI1640 medium for 24 hrs, and then cells were seeded in 48-well culture plates (3×10^5 cells/well) and continued to culture in 0.5 ml fresh serum-free RPMI1640 medium containing 25 μM peptide for another 24 hrs. The cell viability was determined by the MTT assay. Briefly, 50 μL of MTT stock solution (50 μL) (5 mg MTT dissolved in 1 ml of sterile PBS) was added to each culture well. In addition, 50 μL of the MTT stock solution was added in 500 μL of medium as the negative control. The culture plate was incubated at 37° C. for 4 hours. Aliquots (450 μl) from each sample were taken to a new well of 48-well culture plate, adding 100 μL DMSO, mixing thoroughly using the pipette and reacted at 37° C. for 20 min and read absorbance at 570 nm. These synthesized peptides were then subject to MTT assay, in which vascular endothelial growth factor (VEGF) was used as a stimulant to induce cell proliferation. Results are depicted in FIGS. 1 to 4.
Background: Tetrazolium assays rely on reduction of a dye to a coloured formazan, in cell work by metabolically active cells.

In assay [2] the test system is HUVECs. The assay can be described thus: VEGF-induced HUVEC proliferation assay. In kind it is cell-based. The conditions noted are these: VEGF (10 ng/mL) + 25 μM peptide; vs untreated HUVECs. The protocol: HUVECs (1×10^5 cells per well of 6-well plate) were grown in Medium 200 with Low Serum Growth Supplement (LSGS Kit, supplement contains 1.9% FBS, 3 ng/ml bFGF, 10 μg/ml heparin, 1 μg/ml hydrocortisone, and 10 ng/ml EGF). Culture plates were coated with 2% gelatin. Cells (passages 4-8) were cultured at 37° C. in a humidified atmosphere of 5% CO2. […]
HUVECs (1×10^5 cells per well of 6-well plate) in Medium 200 supplemented with LSGS Kit were allowed to grow onto 6-well plates coated with 2% gelatin for 24 hours at 37° C. in 5% CO2. The culture medium was then replaced with serum free Medium 200 overnight. […] Then, cells were harvested by trypsin-EDTA and counted using a hemocytometer.

The subject of assay [3] is HUVECs. The assay can be described thus: Endothelial cell capillary-like tube formation assay. The conditions noted are these: VEGF (10 ng/mL) + 25 μM peptide; vs untreated HUVECs. It counts as cell-based. The protocol:
To examine the effect of the present synthetic peptide on in vitro angiogenesis, growth factor-reduced matrigel was pipetted into pre-chilled 24-well plates (150 μl matrigel per well) and polymerized for 45 min at 37° C. […] In this experiment, images were captured using a Cannon camera on Zeiss inverted microscope with magnification ×40 and tube length was quantified using Image analysis software (Image-Pro Plus). The control peptide as used in the present invention has the sequence of DLYRVR (SEQ ID NO: 10).

The subject of assay [4] is rat aortic ring. The assay can be described thus: Rat aortic ring assay (ex vivo microvessel sprouting). Details: species or system Sprague Dawley rats. As to conditions: beta-FGF induced; peptide 50 μM. On the procedure:
Thoracic aortas were removed from euthanized 10-week-old male Sprague Dawley rats, and gently stripped off periaortic fibroadipose tissue. Aortas were sectioned to about 2-mm length rings, which were embedded in Matrigel. To induce angiogenesis, human recombinant bFGF (50 ng/ml) or bFGF plus the peptide (50 μM) was added in Matrigel. Gel (200 μl) containing an aortic ring was polymerized in 12-well plates (37° C. for 30 min) and then incubated with 1 ml of Medium 200 supplemented with 100 units/ml penicillin, and […] streptomycin and 2% FBS at 37 ° C. The cultures were propagated at 37 ° C. in a humidified incubator for up to 7 days. Sprouts were recorded using an inverted microscope platform (Leica DM16000B) with bright-field optics. Each ring was scored by three independent observers on a scale 0-4 depending on the degree of sprouting vessel being observed (0=no sprouting, 4=profuse sprouting). The experiment was repeated in triplicates.

Assay [5] concerns B16-F10 melanoma cells. The assay can be described thus: Experimental pulmonary metastasis in mice. In kind it is in vivo, C57BL/6 mice. The conditions noted are these: for effect on number of colonies on the surface of the lung / in vivo metastasis / No. lung colonies: 10 mg/Kg intraperitoneal every 2 days; for No. lung colonies: day 8, n = 5; for Inhibition (%): lung colonies vs vehicle, 10 mg/Kg. The protocol:
2×10^5 B16-F10 cells were suspended in 100 μl PBS and checked for viability using trypan blue staining (>95%). The B16-F10 cells were then injected into the tail vein of the 6-week-old female C57BL/6 mice; while vehicle (DMSO), the present synthetic peptide or the control peptide (10 mg/kg) were administered by intraperitoneal injections every 2 days after the B16-F10 cell injection. Five mice were used for each group. On day 8 after inoculation of cells, the lungs were removed, and the number of visible colonies on the surface of the lungs were counted using a dissecting microscope.
Metastasis is the foremost cause of death from cancer. In this example, to investigate the efficacy of the present synthetic peptide on the metastasis of cancer cells, B16-F10 cells were injected into the tail vein of a mouse, the animal was then treated with the present synthetic peptide (7-mer or 7-mer DD, 10 mg/Kg) by intraperitoneal injections every 2 days. Upon completion of the experiment, the lungs were then removed and the tumor colonies visible to the eyes were then counted. Results are depicted in FIG. 10.

Assay [6] has as its system STZ-induced diabetic mice. The assay can be described thus: Vascular abnormalities in the retina of diabetic mice. It counts as in vivo. As to conditions: for Fluorescence Intensity (Fold): leaked FITC-BSA in entire retina, vs vehicle. The protocol:
Diabetic mice were generated by a single intraperitoneal injection of streptozotocin (STZ) (150 mg/kg body weight). STZ was freshly prepared in 0.1 M citrate buffer (pH 4.5). After injection, mice were supplied with 10% sucrose overnight to prevent sudden hypoglycemic shock. After 1 week, mice with non-fasting blood glucose levels >500 mg/dl were defined as diabetic and used for the experiments. DMSO Vehicle or the present synthetic peptide (10 mg/kg; n≥3 per peptide) were administered by intraperitoneal injections twice a day. After treatment for 24 h, mice were intraperitoneal injected with 100 mg/kg of BSA-FITC for further 30 min.
To determine vascular lesions (hemorrhaging areas) in retina, the animals were euthanized by CO2 inhalation, and the eyes were enucleated and fixed by 2% paraformaldehyde for 2 hr and flat-mounted onto glass slides to obtain optical sections by an epifluorescence microscopy. Vascular lesions in the retina was scored in all four retinal quadrants of flat mounts by using a 20× objective. Six microscopic fields were sampled in each quadrant in both the central and peripheral retina, and data were presented as the average number of lesions/retina.
Vascular FITC-BSA leakage was determined by a fluorescence spectrofluorometer based on standard curves of FITC-BSA at excitation and emission wavelengths of 488 and 535 nm, respectively, and then normalized to a non-injected control retina. For this analysis, retinas were dissected from treated and untreated diabetic mice after BSA-FITC injections, and each was solubilized in 300 μL ice-cold PBS.
Diabetic retinopathy is characterized by blood-retinal barrier (BRB) breakdown and neurotoxicity. To evaluate the possible beneficial effect of the present synthetic peptides on diabetic retinopathy, STZ-induced diabetic mice were intraperitoneally injected with 7-mer peptide, DMSO vehicle or the control peptide (SEQ ID NO: 22). The retinal vascular abnormality was then monitored by detecting the extravasation of BSA-fluorescein. Results are depicted in FIG. 11.

Assay [7] has as its system rat model of laser-induced wet AMD. The assay can be described thus: Laser-induced wet AMD, rat model. In kind it is in vivo. As to conditions: fluorescein angiography day 14; vs PBS vehicle. From the text:
Further, the effect of 7-mer or 7-mer DD on rat model of laser-induced wet AMD was also investigated. Fluorescein angiography images were obtained on day 14 after laser burn, and the images were subsequently scored. Results are depicted in FIG. 14.

In assay [8] the test system is HUVECs. The assay can be described thus: Apoptosis assay (annexin V-FITC). As to conditions: HUVECs. It counts as cell-based. On the procedure: The percentage of apoptotic HUVEC cells was assayed using TACS annexin V-FITC kit. The percentage of annexin V-positive cells was determined using in situ staining according to the manufacturer's instruction. The cell number was determined by counterstaining with Hoechst 33342. The nuclei in ten randomly selected fields of the three different chambers (˜7200 cells) were counted. Specimens were examined and photographed on a Zeiss epifluorescence microscope (×100, 10 fields/sample). Pictures were recorded on Zeiss software.

For assay [9], the system named is human uterine sarcoma cells (MES-SA/Dx5). The assay can be described thus: Tumorigenicity assay, xenografted human uterine sarcoma. It counts as in vivo, nude mice. As to conditions: 10 mg/kg intraperitoneal every 2 days. The protocol:
MES-SA/Dx5 cells (5×10^6 cells in 0.1 ml) were implanted by subcutaneous injections in the right flank region of female nude mice (n=24, each animal weighted about 20 g before the assay began). The experiments were approved by the Mackay Memorial Hospital Review Board for animal investigation. Treatment was initiated in animals when the tumor volume was above 80 mm^3. Vehicle DMSO, the present synthetic peptide or the control peptide (10 mg/kg) was administered by intraperitoneal injections every 2 days. Tumor progression was monitored for 10 days; size of the tumor was measured every 3 to 5 days with a caliper and the volume was calculated using the following formula: ½×length×width^2.
To this purpose, human uterine sarcoma cells (MES-SA/Dx5) were implanted in nude mice to induce tumor formation, and when the volume of each tumor reached 80 mm^3, animals were then treated with vehicle alone, or the 7-mer peptide at the dose of 10 mg/kg, every 2 days for 10 days. Results are depicted in FIG. 9.
On the technique in general: A xenograft is tissue or cells of one species grown in another, often human tumour cells in immunodeficient mice.

“Also recorded” adds a separate entry of the source. Square brackets hold non-standard residues; d marks the D form. Ends that are not written are not given here.

Regarding “NH2-(D-Asp)-Leu-Tyr-Arg-Val-Arg-Ser-COOH (H-[dD]LYRVRS-OH) [7-mer DD]”, in assay [1] (1 to 25 μM, RPMI8226 cells), the “dose dependence of inhibitory action on VEGF-induced cell proliferation” value is given as “dose dependent manner”. The “Cell number (Fold)” value in [2] came to 0.90 ± 0.048 Fold. The “Tube length (Fold)” value in assay [3] is 1.33 ± 0.25 Fold. The “level of sprouting microvessels around the aortic ring” value in assay [4] is “inhibited”. In assay [5], the “effect on number of colonies on the surface of the lung / in vivo metastasis” value is “capable of reducing the number of colonies; also recorded: may suppress in vivo metastasis”, the No. lung colonies is listed as 40 ± 15.7 and the “Inhibition (%)” value was 82.3%. Further, in [6], the “extravasation of FITC-BSA” value is on record as “may significantly prevent” and the “Fluorescence Intensity (Fold)” value is reported as 0.38 ± 0.11 Fold. Further, the “lesions caused by the laser burn” value in [7] is listed as “significantly ameliorated”.
For the substance “NH2-Asp-Leu-Tyr-Arg-Val-Arg-COOH (DLYRVR; not fully specified (N-terminus, C-terminus); printed as NH2-Asp-Leu-Tyr-Arg-Val-Arg-COOH) [Control Peptide, reference compound]”, the “biological activity of the analogue relative to the 7-mer (summary statement of the description)” value in assay [1] (summary of Example 1 findings) is recorded as “does not possess any biological function”. Besides, the “induction of cell apoptosis” value in assay [8] is given as “did not result in cell apoptosis”. Also, the sizes of tumors entry in [9] is “remained relatively unchanged”. In addition, the “hemorrhage in the retinal parenchyma” value in assay [6] (intraperitoneal) was “several hemorrhaging areas”.
Turning to “NH2-Asp-Leu-Tyr-Lys-Val-Pro-Ser-COOH (DLYKVPS; not fully specified (N-terminus, C-terminus); printed as NH2-Asp-Leu-Tyr-Lys-Val-Pro-Ser-COOH) [7-mer KP]”, the “effect on VEGF-induced proliferation of RPMI8226 cells” value in assay [1] (VEGF 50 ng/ml, 25 μM peptide, 24 hrs, MTT) is reported as “could sustain 7-mer bioactivity, only partly”. Also, in assay [2], the “Cell number (Fold)” value is 1.02 ± 0.075 Fold. In [3], the “Tube length (Fold)” value is on record as 1.62 ± 0.29 Fold. The “level of sprouting microvessels around the aortic ring” value in assay [4] is given as “inhibited”. In [5], the “effect on number of colonies on the surface of the lung / in vivo metastasis” value is listed as “may suppress in vivo metastasis”, the No. lung colonies stood at 69 ± 11.5 and the “Inhibition (%)” value came to 69.3%. In addition, in assay [6], the “extravasation of FITC-BSA” value is given as “may significantly prevent” and the “Fluorescence Intensity (Fold)” value was found to be 0.37 ± 0.13 Fold.
